Assay results as given in publication PMC10088252.
Values joined by “and” are separate entries in the source; they are usually repeats but may differ in a detail not shown here. Equal entries are not always repeated. Where two headings read alike, the source gives them in different places.

Assays:
[1] = system: locally advanced or metastatic NSCLC harboring c-MET overexpression or MET exon 14 skipping mutation; assay type: in vivo, human
Method: Patients enrolled in this study were divided into two parts. […] Patients with pre-existing c-MET overexpression at hospital diagnosis were also included in Part A. In Part B, patients in the 400 mg bis in die (BID) dose cohort, blood and tissue samples were collected to perform NGS to determine the MET exon 14 skipping mutation. Patients harboring pre-existing MET exon 14 skipping mutation at hospital diagnosis were also enrolled into Part B. […] Statistical analyses were performed using SAS version 9.4 (SAS Institute, Cary, NC, USA). Age was expressed as median (range), and categorical variables were expressed as frequency (percentage). The 95% CIs of ORR and DCR were calculated using Clopper-Pearson method. […] No imputation method was performed for missing data.

[2] = Plasma PK from sparse data, population PK analysis without PK modeling; assay type: in vivo, human; settings: 28 days
Method: A total of 21 patients in Part A were included in PKAS. […] The mean T1/2 of M1 ranged from 19.8 h to 21.8 h. For M2-2, its mean T1/2 was not able to estimate in the 450 mg QD and 600 mg QD cohorts, and 21.3 h in the 300 mg QD cohort. The MP ratio calculated based on AUCtau ranged from 6.0 to 9.1 for M1, and ranged from 4.1 to 5.7 for M2-2.

[3] = Chinese patients with advanced NSCLC, even at 800 mg QD; cited from earlier work

## O=C(Nc1ccc(Oc2ccnc3c2CCN3)c(F)c1)c1c[nH]cc(-c2ccc(F)cc2)c1=O
[1]; 300 mg QD (n=12)
  BOR CR: 0 n (%)
  BOR NE (patients not evaluable): 0 n (%)
  BOR PD: 7 (58.3) n (%)
  BOR PR: 0 n (%)
  BOR SD: 5 (41.7) n (%)
  DCR (95% CI): 41.7% and 41.7 (15.2, 72.3) %
  ORR (95% CI): 0 (0, 26.5) %
  PFS, median (95% CI): 1.9 months and 1.9 (1.9, 5.6) months
[1]; 400 mg BID (n=4)
  BOR CR: 0 n (%)
  BOR PD: 0 n (%)
  BOR PR: 0 n (%)
[1]; 450 mg QD (n=12)
  BOR CR: 0 n (%)
  BOR PD: 6 (50.0) n (%)
  BOR PR: 0 n (%)
  BOR SD: 4 (33.3) n (%)
  DCR (95% CI): 33.3% and 33.3 (9.9, 65.1) %
  ORR (95% CI): 0 (0, 26.5) %
  OS, median (95% CI): 9.3 months and 9.3 (2.6, NE) months
  PFS, median (95% CI): 1.9 months and 1.9 (1.1, 3.8) months
[1]; 600 mg QD (n=10)
  BOR CR: 0 n (%)
  BOR PD: 2 (20.0) n (%)
  BOR SD: 3 (30.0) n (%)
  DCR (95% CI): 40.0% and 40.0 (12.2, 73.8) %
  ORR (95% CI): 10.0 (0.3, 44.5) %
  PFS, median (95% CI): 1.8 months and 1.8 (1.2, 3.9) months
[1]; Part A (n=34), c-MET overexpression
  ORR: 2.9%
[1]; Part B, 400 mg BID (n=4)
  DCR (95% CI): 75.0% and 75.0 (19.4, 99.4) %
  ORR (95% CI): 0% and 0 (0, 60.2) %
  PFS, median (95% CI): 3.4 months and 3.4 (3.2, 3.7) months
[1]; Total (n=38)
  BOR CR: 0 n (%)
  BOR PD: 15 (39.5) n (%)
  BOR SD: 15 (39.5%) n (%) and 15 (39.5) n (%)
  DCR (95% CI): 42.1% and 42.1 (26.3, 59.2) %
  ORR (95% CI): 2.6% and 2.6 (0.1, 13.8) %
  OS, median (95% CI): 10.3 months and 10.3 (7.3, NE) months
  PFS, median (95% CI): 1.9 months and 1.9 (1.9, 3.7) months
[2]; 300 mg QD (n=4)
  AUCtau, mean (SD): 7420.0 (3120.0) h×ng/mL
  CLss/F, mean (SD): 46.2 (18.7) L/h
  Cmax,ss, mean (SD): 601.0 (189.0) ng/mL
  Cmin,ss, mean (SD): 89.1 (56.3) ng/mL
  Ctrough, mean (SD): 94.1 (79.0) ng/mL
  T1/2, mean (SD): 9.1 (1.7) h
  Tmax,ss, mean (SD): 4.0 (2.0) h
  Vz,ss/F, mean (SD): 685.0 (196.0) L
[2]; 450 mg QD (n=5)
  AUCtau, mean (SD): 6350.0 (2710.0) h×ng/mL
  CLss/F, mean (SD): 77.9 (33.2) L/h
  Cmax,ss, mean (SD): 470.0 (83.3) ng/mL
  Cmin,ss, mean (SD): 151.0 (77.5) ng/mL
  Ctrough, mean (SD): 167.0 (100.5) ng/mL
  T1/2, mean (SD): 10.3 (NE) h
  Tmax,ss, mean (SD): 5.1 (2.0) h
  Vz,ss/F, mean (SD): 1500.0 (NE) L
[2]; 600 mg QD (n=2)
  AUCtau, mean (SD): 6980.0 (NE) h×ng/mL
  CLss/F, mean (SD): 86.0 (NE) L/h
  Cmax,ss, mean (SD): 758.0 (NE) ng/mL
  Cmin,ss, mean (SD): 80.3 (NE) ng/mL
  Ctrough, mean (SD): 201.1 (166.4) ng/mL
  T1/2, mean (SD): 9.6 (NE) h
  Tmax,ss, mean (SD): 3.0 (NE) h
  Vz,ss/F, mean (SD): 1180.0 (NE) L
[3]
  dose-limiting toxicity (DLT): No dose-limiting toxicity (DLT) occurred
